This is an account of results in PubChem BioAssay AID330 (DTP/NCI, 2004).

Values joined by “and” are separate entries in the source; they are usually repeats but may differ in a detail not shown here. Equal entries are not always repeated. Toxic doses and inconclusive results are not listed.

This test concerns P388 leukemia ip, CD2F1 mice, survival T/C. In words: NCI In Vivo Anticancer Drug Screen. Data for tumor model P388 Leukemia (intraperitoneal) in CD2F1 (CDF1) mice. The conditions noted are these: endpoint: median survival time, higher = longer survival. The method in brief:
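Mice carrying the transplanted tumor received test compound or vehicle. Survival was recorded in each group, and the value is the treated-group measurement divided by that of the vehicle-treated control group.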

[1] abbreviates: dose: 25.0 mg/kg/injection, schedule: Q04DX002 (ip), vehicle: saline with Tween-80.
Where [2] appears, read: dose: 200.0 mg/kg/injection, schedule: Q04DX003 (ip), vehicle: saline with Tween-80.
The mark [3] stands for this setting: dose: 25.0 mg/kg/injection, schedule: Q01DX005 (ip), vehicle: Klucel + Tween-80.
Setting [4] is: dose: 50.0 mg/kg/injection, schedule: Q01DX005 (ip), vehicle: Klucel + Tween-80.
[5] abbreviates: dose: 200.0 mg/kg/injection, schedule: Q01DX005 (ip), vehicle: Klucel + Tween-80.
[6] abbreviates: dose: 50.0 mg/kg/injection, schedule: Q01DX005 (ip), vehicle: saline.
The mark [7] stands for this setting: dose: 100.0 mg/kg/injection, schedule: Q01DX005 (ip), vehicle: saline.
Where [8] appears, read: dose: 50.0 mg/kg/injection, schedule: Q01DX005 (ip), vehicle: saline with Tween-80.
The mark [9] stands for this setting: dose: 100.0 mg/kg/injection, schedule: Q01DX005 (ip), vehicle: saline with Tween-80.
The mark [10] stands for this setting: dose: 200.0 mg/kg/injection, schedule: Q01DX005 (ip), vehicle: saline with Tween-80.

`CCOC(=O)Cn1nc(-c2ccccc2)c(-c2ccccc2)c(C#N)c1=O`: the T/C was 95 % of control (dose: 25.0 mg/kg/injection, schedule: Q04DX002 (ip), vehicle: distilled water + Tween-80); 107 % of control (dose: 50.0 mg/kg/injection, schedule: Q04DX002 (ip), vehicle: distilled water + Tween-80); 98 % of control (dose: 100.0 mg/kg/injection, schedule: Q04DX002 (ip), vehicle: distilled water + Tween-80); 92 % of control (dose: 200.0 mg/kg/injection, schedule: Q04DX002 (ip), vehicle: distilled water + Tween-80).

In the case of `Cc1nc(C(=O)O)cc([N+](=O)[O-])c1C`, the T/C reads like this: (dose: 25.0 mg/kg/injection, schedule: Q01DX009 (ip), vehicle: other) 97 % of control; (dose: 50.0 mg/kg/injection, schedule: Q01DX009 (ip), vehicle: other) 97 % of control; (dose: 100.0 mg/kg/injection, schedule: Q01DX009 (ip), vehicle: other) 100 % of control; (dose: 200.0 mg/kg/injection, schedule: Q01DX009 (ip), vehicle: other) 94 % of control.

As for `[Cl][Pt+2][Cl].[NH-]Cc1ccccc1[NH-]`, the T/C runs as follows: (dose: 6.25 mg/kg/injection, schedule: Q04DX002 (ip), vehicle: saline with Tween-80) 164 % of control; (dose: 12.5 mg/kg/injection, schedule: Q04DX002 (ip), vehicle: saline with Tween-80) 164 % of control; under setting [1], 167 % of control.

Take `COCC1OC2OC3C(COC)OC(OC4C(COC)OC(OC5C(COC)OC(OC6C(COC)OC(OC7C(COC)OC(OC8C(COC)OC(OC1C(O)C2O)C(O)C8O)C(O)C7O)C(O)C6O)C(O)C5O)C(O)C4O)C(O)C3O` (configuration not stated) (tested in a mixture with another compound): the T/C was 100 % of control and 102 % of control (dose: 25.0 mg/kg/injection, schedule: Q01DX009 (ip), vehicle: Klucel (hydroxypropylcellulose) (HPC)); 99 % of control and 100 % of control (dose: 50.0 mg/kg/injection, schedule: Q01DX009 (ip), vehicle: Klucel (hydroxypropylcellulose) (HPC)); 98 % of control (dose: 100.0 mg/kg/injection, schedule: Q01DX009 (ip), vehicle: Klucel (hydroxypropylcellulose) (HPC)); 95 % of control and 97 % of control (dose: 200.0 mg/kg/injection, schedule: Q01DX009 (ip), vehicle: Klucel (hydroxypropylcellulose) (HPC)); 93 % of control and 95 % of control (dose: 400.0 mg/kg/injection, schedule: Q01DX009 (ip), vehicle: Klucel (hydroxypropylcellulose) (HPC)).

Regarding `CCOC(=O)N(CCF)N=O`, the T/C is 108 % of control and 96 % of control (dose: 3.12 mg/kg/injection, schedule: Q01DX001 (ip), vehicle: saline with Tween-80); 108 % of control and 114 % of control (dose: 6.25 mg/kg/injection, schedule: Q01DX001 (ip), vehicle: saline with Tween-80); 124 % of control (dose: 12.5 mg/kg/injection, schedule: Q01DX001 (ip), vehicle: saline with Tween-80); 117 % of control (dose: 25.0 mg/kg/injection, schedule: Q01DX001 (ip), vehicle: saline with Tween-80).

As for `CCOc1cnco1`, the T/C was 99 % of control (dose: 100.0 mg/kg/injection, schedule: Q04DX002 (ip), vehicle: saline); 100 % of control (dose: 200.0 mg/kg/injection, schedule: Q04DX002 (ip), vehicle: saline); 112 % of control (dose: 400.0 mg/kg/injection, schedule: Q04DX002 (ip), vehicle: saline).

With `CNC(=S)N/N=C/c1nccc(-c2ccccc2)c1C`, the T/C under setting [2] is 107 % of control.

Take `CCCCCCCCCCCCCCCCCC(N)=S`: the T/C is 95 % of control (dose: 12.5 mg/kg/injection, schedule: Q01DX005 (ip), vehicle: Klucel + Tween-80); 95 % of control under setting [3]; 86 % of control and 94 % of control under setting [4]; 87 % of control under setting [5].

On to `CCOC(=O)CC(CSCP(=O)(OCC)OCC)C(=O)OCC` (configuration not stated), for which the T/C is 105 % of control (dose: 60.0 mg/kg/injection, schedule: Q01DX005 (ip), vehicle: saline with Tween-80); 94 % of control (dose: 120.0 mg/kg/injection, schedule: Q01DX005 (ip), vehicle: saline with Tween-80); 100 % of control (dose: 240.0 mg/kg/injection, schedule: Q01DX005 (ip), vehicle: saline with Tween-80).

`CCN(CC)CCNc1ncnc2[nH]ncc12`: the T/C runs as follows: under setting [6], 106 % of control; under setting [7], 101 % of control.

`CC1=Nc2ccccc2S/C1=C(/C)NN`: the T/C (dose: 100.0 mg/kg/injection, schedule: Q01DX001 (ip), vehicle: saline with Tween-80) is 104 % of control; the T/C (dose: 200.0 mg/kg/injection, schedule: Q01DX001 (ip), vehicle: saline with Tween-80) was 104 % of control; the T/C (dose: 400.0 mg/kg/injection, schedule: Q01DX001 (ip), vehicle: saline with Tween-80) is 95 % of control.

Consider `CC1(C)NN=C2C(=CC=C3NNC(C)(C)N32)n2cccc21`, for which the T/C by setting is: under setting [8], 104 % of control; under setting [9], 106 % of control.

For `COc1c(O)cc2oc(-c3ccccc3)c(O)c(=O)c2c1OC`, the T/C by setting is: under setting [3], 89 % of control; under setting [4], 95 % of control; (dose: 100.0 mg/kg/injection, schedule: Q01DX005 (ip), vehicle: Klucel + Tween-80) 98 % of control; under setting [5], 95 % of control.

Take `Cc1ccc(S(=O)(=O)N(C=O)c2ccccc2)cc1`: the T/C is 90 % of control (dose: 50.0 mg/kg/injection, schedule: Q01DX009 (ip), vehicle: saline with Tween-80) and 90 % of control (dose: 100.0 mg/kg/injection, schedule: Q01DX009 (ip), vehicle: saline with Tween-80).

On to `c1ccc2c(c1)C(=NCCCN1CCCCCC1)c1cccn1-2`, for which the T/C is 100 % of control under setting [8], 100 % of control under setting [9] and 100 % of control under setting [10].

Turning to `Cc1ccc2c(c1Oc1ccc(S(N)(=O)=O)cc1)C(=O)c1ccccc1C2=O`, the T/C is 100 % of control (dose: 100.0 mg/kg/injection, schedule: Q04DX003 (ip), vehicle: saline with Tween-80); 100 % of control under setting [2]; 95 % of control (dose: 400.0 mg/kg/injection, schedule: Q04DX003 (ip), vehicle: saline with Tween-80).

For `NCCN.NCCN.NCCN.[Cl-].[Pt]`, the T/C reads like this: (dose: 1.56 mg/kg/injection, schedule: Q01DX009 (ip), vehicle: saline) 101 % of control; (dose: 3.13 mg/kg/injection, schedule: Q01DX009 (ip), vehicle: saline) 101 % of control; (dose: 6.25 mg/kg/injection, schedule: Q01DX009 (ip), vehicle: saline) 107 % of control; (dose: 12.5 mg/kg/injection, schedule: Q01DX009 (ip), vehicle: saline) 99 % of control.

For `CN=C(N)N/N=C(\C)c1ccc2c(c1)Cc1cccc(Br)c1-2`, the T/C was 111 % of control under setting [1]; 109 % of control (dose: 50.0 mg/kg/injection, schedule: Q04DX002 (ip), vehicle: saline with Tween-80); 109 % of control (dose: 100.0 mg/kg/injection, schedule: Q04DX002 (ip), vehicle: saline with Tween-80).

As to `Cc1c(NC(=S)Nc2ccccc2)c(=O)n(-c2ccccc2)n1C`, the T/C was 93 % of control under setting [8], 93 % of control under setting [9] and 89 % of control under setting [10].

As for `O=C1C2CC=CCC2C(=O)N1SC(Cl)(Cl)Cl` (configuration not stated), the T/C runs as follows: (dose: 3.13 mg/kg/injection, schedule: Q01DX009 (ip), vehicle: saline with Tween-80) 121 % of control; (dose: 6.25 mg/kg/injection, schedule: Q01DX009 (ip), vehicle: saline with Tween-80) 121 % of control; (dose: 12.5 mg/kg/injection, schedule: Q01DX009 (ip), vehicle: saline with Tween-80) 120 % of control.

Turning to `CS(=O)CC(=O)c1ccccn1` (configuration not stated), the T/C is, setting by setting: under setting [6], 106 % of control; under setting [7], 100 % of control; (dose: 200.0 mg/kg/injection, schedule: Q01DX005 (ip), vehicle: saline) 99 % of control.

Consider `Nc1ncnc2c1nc(N)n2C1OC(CO)C(O)C1O` (configuration not stated), for which the T/C is, setting by setting: (dose: 6.0 mg/kg/injection, schedule: Q01DX005 (ip), vehicle: saline) 122 % of control; (dose: 25.0 mg/kg/injection, schedule: Q01DX005 (ip), vehicle: saline) 119 % of control.

`COc1ccc(C(OC)C2CCCCC2N2CCCCC2)cc1` (configuration not stated): the T/C is 107 % of control (dose: 0.5 mg/kg/injection, schedule: Q01DX009 (ip), vehicle: Klucel (hydroxypropylcellulose) (HPC)); 114 % of control (dose: 1.0 mg/kg/injection, schedule: Q01DX009 (ip), vehicle: Klucel (hydroxypropylcellulose) (HPC)); 107 % of control (dose: 2.0 mg/kg/injection, schedule: Q01DX009 (ip), vehicle: Klucel (hydroxypropylcellulose) (HPC)); 109 % of control (dose: 4.0 mg/kg/injection, schedule: Q01DX009 (ip), vehicle: Klucel (hydroxypropylcellulose) (HPC)).
